In patent publication US5068190A, “N-acetylhexosamine-dehydrogenase, process for producing same, method for the quantitative analysis of N-acetylglucosamine or N-acetylgalactosamine using same and kit for use in the quantitative analysis” (Noda Institute for Scientific Research, priority 1988, dated 1991):

system: N-acetylhexosamine-dehydrogenase (N-AHDH); assay: Action and substrate specificity of the enzyme; type: biochemical, Pseudomonas sp. No. 53; conditions: in the presence of NAD+
Description: As shown in the following reaction scheme, this enzyme oxidizes N-acetylglucosamine or N-acetylgalactosamine to N-acetylglucosaminolactoneor N-acetylgalactosaminolactone in the presence of NAD^+ and, at the same time, reduces the NAD^+ to NADH. [drawing 1]
(§1) To 1.8 ml of 0.1 M glycine-sodium hydroxide buffer (pH 9.5) is added 0.1 ml of 60 mM […] solution. After keeping the mixture at 37° C. for 10 minutes, 10 microliters of enzyme solution is added, and subsequently 0.1 ml of 0.3M N-acetylglucosamine solution is mixed to start the reaction. The reaction mixture is immediately transferred into an absorbance measurement cell (1 cm path) kept at 37° C., and absorbance is measured at intervals of one minute at a wavelength of 340 nm over a period of 5 minutes or, if desired, over a longer period of time. A quantity of enzyme capable of forming one micromole of NADH per one minute is taken as "one unit".

Row | Action of the enzyme upon the sugar (substrate specificity) | Structure (SMILES)
1 | oxidizes | CC(=O)N[C@H]1C(O)O[C@H](CO)[C@H](O)[C@@H]1O (stereo partly shown) [N-acetylgalactosamine]
2 | oxidizes | CC(=O)N[C@H]1C(O)O[C@H](CO)[C@@H](O)[C@@H]1O (stereo partly shown) [N-acetylglucosamine]
3 | only a slight action | CC(=O)N[C@@H]1C(O)O[C@H](CO)[C@@H](O)[C@@H]1O (stereo partly shown) [N-acetylmannosamine]

Row | Structure (SMILES) | Action of the enzyme upon the sugar (substrate specificity)
4 | CC(=O)N[C@H]1[C@H](O[C@H]2[C@H](O)[C@@H](NC(C)=O)C(O)O[C@@H]2CO)O[C@H](CO)[C@@H](O)[C@@H]1O (stereo partly shown) [N,N'-diacetylchitobiose] | no action at all or hardly exercises an action

same assay, conditions: in the presence of NAD+; listed as acetylchitobiose

Row | Action of the enzyme upon the sugar (substrate specificity) | Structure (SMILES)
5 | does not act | CC(=O)N[C@H]1[C@H](O[C@H]2[C@H](O)[C@@H](NC(C)=O)C(O)O[C@@H]2CO)O[C@H](CO)[C@@H](O)[C@@H]1O (stereo partly shown) [N,N'-diacetylchitobiose]

system: N-acetylhexosamine-dehydrogenase (N-AHDH); assay: Influence of inhibitor on enzyme activity; type: biochemical, Pseudomonas sp. No. 53; conditions: not given
Description: In the table presented above, enzyme activity was measured in a solution containing 2 mM of metallic ion or inhibitor. There is known no substance particularly contributing to activation and stabilization.
as §1

Row | Structure (SMILES) | Residual activity
6 | Oc1cccc2cccnc12 [8-Hydroxyquinoline] | 110

same assay, conditions: solution containing 2 mM of metallic ion or inhibitor

Row | Structure (SMILES) | Residual activity
7 | [N-]=[N+]=[N-].[Na+] [NaN3] | 89%
8 | O=C(O)CN(CCN(CC(=O)O)CC(=O)O)CC(=O)O [EDTA] | 101%
9 | O=S(=O)([O-])[O-].[Cu+2] [CuSO4] | 94%
10 | O=C(O)c1cc[c]([Hg][Cl])cc1 [PCMB] | 97%
11 | O=S(=O)([O-])[O-].[Cd+2] [CdSO4] | 92%
12 | O=S(=O)([O-])[O-].[Zn+2] [ZnSO4] | 95%
13 | O=S(=O)([O-])[O-].[Mn+2] [MnSO4] | 96%
14 | CCCCCCCCCCCCOS(=O)(=O)O [SDS] | 62%
15 | c1ccc(-c2ccccn2)nc1 [α, α'-Dipyridyl] | 107%
16 | c1cnc2c(c1)ccc1cccnc12 [o-Phenanthroline] | 104%
17 | NC(=O)CI [Iodoacetamide] | 104%
18 | [Cl][Hg][Cl] [HgCl2] | 35%
19 | [Ca+2].[Cl-].[Cl-] [CaCl2] | 95%
